The source of these data is patent publication US6492356B1, “Acylguanidine derivatives as inhibitors of bone resorption and as vitronectin receptor antagonists” (Aventis Pharma Deutschland GmbH, priority 1997, dated 2002).

The target of the test is T1, vitronectin receptor αvβ3 (Homo sapiens, UniProt P05106+P06756).
T1 construct: expressed in transfected cells
T1 sequence (P06756 31-889 limits assumed): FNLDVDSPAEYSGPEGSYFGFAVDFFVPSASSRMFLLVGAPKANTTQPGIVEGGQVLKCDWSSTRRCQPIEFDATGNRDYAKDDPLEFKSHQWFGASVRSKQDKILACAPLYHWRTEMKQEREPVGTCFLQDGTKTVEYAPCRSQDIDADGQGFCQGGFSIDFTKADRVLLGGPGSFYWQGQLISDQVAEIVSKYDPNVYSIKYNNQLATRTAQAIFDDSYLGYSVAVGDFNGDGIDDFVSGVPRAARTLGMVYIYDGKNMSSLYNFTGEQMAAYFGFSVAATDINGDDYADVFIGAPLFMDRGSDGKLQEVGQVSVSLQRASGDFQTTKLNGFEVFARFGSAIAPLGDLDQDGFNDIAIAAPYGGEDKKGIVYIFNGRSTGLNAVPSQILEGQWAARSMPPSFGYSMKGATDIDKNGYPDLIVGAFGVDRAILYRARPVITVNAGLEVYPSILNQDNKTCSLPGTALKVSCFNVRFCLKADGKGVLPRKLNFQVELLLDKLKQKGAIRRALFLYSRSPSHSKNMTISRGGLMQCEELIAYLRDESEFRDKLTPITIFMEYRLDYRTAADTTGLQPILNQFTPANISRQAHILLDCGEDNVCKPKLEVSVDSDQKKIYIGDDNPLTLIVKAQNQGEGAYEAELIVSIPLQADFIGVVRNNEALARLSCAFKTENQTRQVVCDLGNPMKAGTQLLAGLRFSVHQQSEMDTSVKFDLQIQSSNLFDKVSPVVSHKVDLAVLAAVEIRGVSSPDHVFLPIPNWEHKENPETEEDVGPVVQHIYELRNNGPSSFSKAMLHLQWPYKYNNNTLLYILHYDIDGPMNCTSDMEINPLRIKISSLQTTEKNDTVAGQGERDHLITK
T1 sequence (P06756 891-1048 limits assumed): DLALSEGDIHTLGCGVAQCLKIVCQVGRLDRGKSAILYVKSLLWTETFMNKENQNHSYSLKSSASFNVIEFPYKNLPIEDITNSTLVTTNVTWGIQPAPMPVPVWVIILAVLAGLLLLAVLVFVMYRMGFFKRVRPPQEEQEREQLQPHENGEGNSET
T1 sequence (P05106 27-788): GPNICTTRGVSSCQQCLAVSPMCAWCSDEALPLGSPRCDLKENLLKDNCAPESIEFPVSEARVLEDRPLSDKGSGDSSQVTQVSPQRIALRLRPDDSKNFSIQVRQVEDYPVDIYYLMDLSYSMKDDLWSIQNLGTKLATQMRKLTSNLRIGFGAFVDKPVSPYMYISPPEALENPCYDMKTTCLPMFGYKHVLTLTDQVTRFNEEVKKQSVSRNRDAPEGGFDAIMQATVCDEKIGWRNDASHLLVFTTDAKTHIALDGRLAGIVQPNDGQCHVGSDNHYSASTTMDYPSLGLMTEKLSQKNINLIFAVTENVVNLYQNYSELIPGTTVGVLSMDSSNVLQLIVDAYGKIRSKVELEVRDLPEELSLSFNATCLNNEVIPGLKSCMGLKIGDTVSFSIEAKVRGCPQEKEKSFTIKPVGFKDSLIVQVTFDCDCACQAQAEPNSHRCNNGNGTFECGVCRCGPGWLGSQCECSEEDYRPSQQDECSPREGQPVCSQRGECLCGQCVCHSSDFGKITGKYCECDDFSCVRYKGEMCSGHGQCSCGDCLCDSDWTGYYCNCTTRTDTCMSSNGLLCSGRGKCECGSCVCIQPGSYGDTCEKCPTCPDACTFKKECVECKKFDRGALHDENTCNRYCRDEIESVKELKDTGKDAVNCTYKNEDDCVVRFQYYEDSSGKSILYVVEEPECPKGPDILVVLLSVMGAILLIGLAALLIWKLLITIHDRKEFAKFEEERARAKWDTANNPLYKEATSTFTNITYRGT
As to the kind of experiment: Inhibition of binding of 293 cells to human vitronectin (Vn/293 cell test). It is filed as cell-based. The note with it: 293 cells cotransfected with αv and β3 subunits; plate coated with human vitronectin; 90 min at 37° C. The text has this: Test for the measurement of the inhibition of binding of 293 cells to human vitronectin (Vn/293 cell test)
1. Purification of Human Vitronectin
Human vitronectin is isolated from human plasma and purified by affinity chromatography according to the method of Yatohyo et al., Cell Structure and Function, 1988, 23, 281-292.
293 cells, a human embryonic kidney cell line, which are cotransfected with DNA sequences for the αv and β3 subunits of the vitronectin receptor αvβ3 , are selected for a high rate of expression (>500,000 αvβ3 receptors/cell) according to the FACS method. The selected cells are cultured and sorted again by means of FACS in order to obtain a stable cell line (15 D) with expression rates >1,000,000 copies of αvβ3 per cell.
A Linbro 96-well tissue culture plate with a flat bottom is coated overnight at 4° C. with human vitronectin (0.01 mg/ml, 0.05 ml/well) in phosphate-buffered saline solution (PBS) and then blocked with 0.5% strength BSA (bovine serum albumin). Solutions of the test substances from 10^−10 mol/l to 2×10^−3 mol/l in glucose-containing DMEM medium are prepared and 0.05 ml/well of the solution are added to the plate in each case. The cells which express high levels of αvβ3 (for example 15 D) are suspended in glucose-containing DMEM medium and the suspension is adjusted to a content of 25,000 cells/0.05 ml of medium. 0.05 ml of this cell suspension is added to each well and the plate is incubated at 37° C. for 90 min. The plate is washed three times with warm PBS in order to remove unbound cells. The bound cells are lyzed in citrate buffer (25 mM, pH 5.0) which contains 0.25% Triton X-100. The hexoseamidase substrate p-nitrophenyl-N-acetyl-β-D-glucosaminide is then added and the plate is incubated at 37° C. for 90 min. The reaction is stopped with a glycine (50 mM)/EDTA (5 mM) buffer (pH 10.4) and the absorption of each well is measured at 405-650 nm. The data are analyzed according to standard processes.
In the case of `O=C(COc1ccc(C(=O)NC[C@H](NC(=O)OCc2ccccc2)C(=O)O)cc1)NC1=NCCCN1` [Example 3, (2S )-2-Benzyloxycarbonylamino-3-(4-((1,4,5,6-tetrahydropyrimidin-2-ylcarbamoyl)methyloxy)benzoylamino)propionic Acid], the IC50 worked out at 1350 nM.

As to `O=C(CCCOc1ccc(C[C@H](NC(=O)OCc2ccccc2)C(=O)O)cc1)NC1=NCCN1` [Example 6, (2S)-2-Benzyloxycarbonylamino-3-(4-(3-(4,5-dihydro-1H-imidazol-2-ylcarbamoyl)propyloxy)phenyl)propionic Acid], the IC50 worked out at 32 nM.

`O=C(CCCOc1ccc(C[C@H](NC(=O)OCc2ccccc2)C(=O)O)cc1)NC1=NCCCN1` [Example 1, (2S)-2-Benzyloxycarbonylamino-3-(4-(3-(1,4,5,6-tetrahydropyrimidin-2-ylcarbamoyl)propyloxy)phenyl)propionic Acid] had an IC50 of 28 nM.

Compound `O=C(CCc1ccc(C(=O)NC[C@H](NC(=O)OCc2ccccc2)C(=O)O)cc1)NC1=NCCCN1` [Example 2, (2S)-2-Benzyloxycarbonylamino-3-(4-(2-(1,4,5,6-tetrahydropyrimidin-2-ylcarbamoyl)ethyl)benzoylamino)propionic Acid] registered an IC50 of 17 nM.
